Measurements reported in patent publication US12427192B2, “Water soluble adjuvant and composition containing same” (Sumitomo Pharma Co., Ltd., priority 2019, dated 2025).

How the values were obtained:
[1] = tested on: HLA-A*02:01 transgenic mouse; experiment: Test 11: in vivo adjuvant activity, cocktail vaccine f (emulsified composition 1), IFNγ ELISPOT; details: added to cocktail vaccine f (emulsified composition 1); 0.04 nmol or 0.4 nmol per body, twice; FIG. 10 and 11
Description: (§1) Evaluation of In Vivo Adjuvant Activity in HLA-A*02:01 Transgenic Mouse
The in vivo adjuvant activity of the compound of Example 1 was evaluated in the following procedure. To a cocktail vaccine (emulsified composition 1) comprising Compound of formula 4 prepared in Reference example 8 and Peptide SEQ ID No. 3 prepared in Reference example 3 (hereinafter, referred to as “cocktail vaccine f”) was added the compound prepared in Example 1 to prepare a vaccine. The vaccine was administered to a HLA-A*02:01 transgenic mouse, and the adjuvant activity of the vaccine was evaluated by the method of testing antigen-specific CTL induction.
For example, the above emulsified composition 1 was prepared as follows. 95.8% (w/w) of soybean oil, 3% (w/w) of PEG-30 dipolyhydroxy stearate, and 1.2% (w/w) of polysorbate 80 were mixed to prepare an oil-phase mixture. The amount of the preparation was adjusted as appropriate. Compound of formula 4 and Peptide SEQ ID No. 3 were mixed with pH 2.5 buffer (10 mM tartaric acid, 10% trehalose) to adjust each concentration to 3 mg/mL and 2.25 mg/mL, respectively. The prepared peptide dilution was mixed with an equal volume of the oil-phase mixture to give an emulsified product, cocktail vaccine f. […] Then, after removal of the supernatant from the wells, stained spots on the ELISPOT plate were counted.

[2] = tested on: HLA-A*02:01 transgenic mouse; experiment: Test 17: in vivo adjuvant activity, liposome formulation 2, IFNγ ELISPOT; details: added to cocktail vaccine 1 (liposome formulation 2); 0.4 nmol per body, twice; FIG. 20 and 21
Description: as §1
The in vivo adjuvant activity of the compound of Example 1 was evaluated in the following procedure.
To a vaccine (liposome formulation 2) comprising Compound of formula 4 prepared in Reference example 8 and Peptide SEQ ID No. 3 prepared in Reference example 3 (hereinafter, referred to as “cocktail vaccine 1”) was added the compound prepared in Example 1 to prepare a vaccine. The vaccine was administered to a HLA-A*02:01 transgenic mouse, and the adjuvant activity of the vaccine was evaluated by the method of testing antigen-specific CTL induction.
For example, the above liposome formulation 2 was prepared as follows. 42.66 mg of sphingomyelin and 15.47 mg of cholesterol were dissolved in t-butyl alcohol, and the mixture was lyophilized. […]
Cocktail vaccine 1 was injected to mice intradermally at the tail base area in an amount for administering 500 μg of Compound of formula 4 per body and 375 μg of Peptide SEQ ID No. 3 per body. […] Then, after removal of the supernatant from the wells, stained spots on the ELISPOT plate were counted.

[3] = tested on: HLA-A*24:02 transgenic mouse; experiment: Test 20: in vivo adjuvant activity, vaccine o (Compound of formula 5), IFNγ ELISPOT; details: added to vaccine o; 0.4 nmol per body, twice; FIG. 25
Description: Evaluation of In Vivo Adjuvant Activity in HLA-A*24:02 Transgenic Mouse
The in vivo adjuvant activity of the compound of Example 1 was evaluated in the following procedure. To a vaccine prepared by mixing Compound of formula 5 prepared in Reference example 22 with a preliminarily-emulsified composition (hereinafter, referred to as “vaccine o”) was added the compound prepared in Example 1 to prepare a vaccine. The vaccine was administered to a HLA-A*24:02 transgenic mouse, and the adjuvant activity of the vaccine was evaluated by the method of testing antigen-specific CTL induction.
Specifically, Compound of formula 5 was dissolved in DMSO, and then diluted with water for injection to concentrations of Compound of formula 5 of 3 mg/mL. The prepared compound dilution was mixed with an equal volume of the preliminary emulsified composition prepared like Test 4 to give an emulsified product, vaccine o. Vaccine o was injected to mice intradermally at the tail base area in an amount for administering 300 μg of Compound of formula 5 per body. […] Then, after removal of the supernatant from the wells, stained spots on the ELISPOT plate were counted.

[4] = Spleen weight in the mice tested in Tests 11-18; format: in vivo, mouse

**Q.** For CCCCCNc1nc(N)nc(C)c1Cc1ccc(CN(C)CCOCCOCCOCCOCCO)cc1OC [Example 1, 1-(4-{[2-amino-4-methyl-6-(pentylamino)pyrimidin-5-yl]methyl}-3-methoxyphenyl)-2-methyl-5,8,11,14-tetraoxa-2-azahexadecan-16-ol·trifluoroacetate], which “CTL counts responsive to Peptide SEQ ID No. 1 or SEQ ID No. 4 compared with adding no compound” value [1] is on record?
**A.** Its value is “more”.

**Q.** And the “CTL counts responsive to Peptide SEQ ID No. 1 or SEQ ID No. 4 compared with adding no compound” value [2]?
**A.** Its value is “more”.

**Q.** What about the “CTL counts responsive to Peptide SEQ ID No. 2 compared with adding no compound” value [3] of the same molecule?
**A.** The value was “more”.

**Q.** And the spleen weight ([4]; mice tested in Tests 11-13 (emulsified compositions), FIG. 26)?
**A.** The spleen weight was “does not induce a pronounced increase of spleen weight”.

**Q.** And the spleen weight ([4]; mice tested in Tests 14 and 15 (oily suspension, hydrogel), FIG. 27)?
**A.** Its spleen weight is “does not induce a pronounced increase of spleen weight”.

**Q.** And the spleen weight ([4]; mice tested in Tests 16-18 (liposome formulations), FIG. 28)?
**A.** The spleen weight was “does not induce a pronounced increase of spleen weight”.
